Columns and labels:
P. putida KT2440 = assay: Growth in the presence of the benzoate substrate analogues 3-FB or 3-CIB; assay type: cell-based; details: MM with 10 mM succinate and 1 mM benzoate, increasing concentrations; 3-FB as compared to 3-CIB
Description: To determine the optimal concentrations of the substrate analogues, P. putida KT2440 was grown in MM with 10 mM succinate and 1 mM benzoate in the presence of increasing concentrations of 3-FB or 3-CIB. The accumulation of fluorocatechol derivatives is known to result in a violet coloration of the medium. When P. putida KT2440 was exposed to 3-FB or 3-CIB a violet coloration of the medium was observed. […] Therefore, two independent batch cultures of NTG-treated P. putida KT2440 cells were cultivated in the presence of 20 mM 3-FB. Batch culture 1 was grown for 14 hours and batch culture 2 for 24 hours, after which the cultures were plated. Individual colonies were screened for their ability to grow with benzoate as the sole source of carbon and energy. Three mutants that could no longer grow using benzoate were isolated from batch 1 and 84 mutants were isolated from batch 2, which represented 0.1 % and 4.4 %, respectively, of the total amount of colonies that were screened. No mutants were found when the NTG-treated P. putida KT2440 cells were not exposed to 3-FB. All mutants accumulated cis, cis-muconate in the medium when grown with succinate in the presence of benzoate. Therefore, the disability of the further conversion of 2-fluoro-cis, cis-muconate by the muconate lactonizing enzyme seems to have caused the selective advantage. […]

[1] = molecular target: T1, catA2 (catechol 1,2-dioxygenase) (Pseudomonas putida, UniProt Q88I35); assay: catA2 activity assay: increase in cis, cis-muconate from catechol measured at A256 with purified His-tagged enzyme; assay type: biochemical, P. putida KT2440
T1 sequence (Q88I35 1-304): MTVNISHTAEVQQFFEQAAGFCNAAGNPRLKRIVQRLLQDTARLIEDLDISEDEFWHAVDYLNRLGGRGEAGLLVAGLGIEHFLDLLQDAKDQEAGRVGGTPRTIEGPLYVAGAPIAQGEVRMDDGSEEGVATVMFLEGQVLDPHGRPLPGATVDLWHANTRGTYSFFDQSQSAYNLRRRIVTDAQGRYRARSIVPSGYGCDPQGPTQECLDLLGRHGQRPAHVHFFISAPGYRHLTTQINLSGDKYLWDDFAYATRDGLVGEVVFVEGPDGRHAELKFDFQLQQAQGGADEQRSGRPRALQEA
Text: (§1) Gene catA2 was amplified from the genome of P. putida KT2440 by PCR using the forward primer 5'- […]-'3 (SEQ ID No. 7) and the reverse primer 5'-[…]-'3 (SEQ ID No. 8) containing a NdeI and XhoI site, respectively. The PCR fragment was ligated into the pET-28a(+) expression vector (Novagen, USA). The catA2 insert was controlled by sequencing after amplification with the T7 and T7 term primer set (Eurofins MWG GmbH, Germany).
(§2) pET-28a(+) with and without the catA2 insert were electro transformed into E. coli BLN21 and plated on LB with kanamycin (50 µg/mL). Transformants containing the plasmid with and without catA2 were grown overnight in 25 mL LB with kanamycin (50 µg/mL) at 37 °C with shaking. […] The purification of CatA2 was monitored with SDS-PAGE and Westernblotting using His-Tag antibodies (Abcam, U. K.).
(§3) The activity of catA2 was assayed by measuring the increase in cis, cis-muconate concentration from catechol in a buffer containing 20 mM Tris-HCl, 0.125 M imidazole (pH 7.8) at A256 using an UV mc2® spectrophotometer (SAFAS, Monaco). In order to determine the km value of the enzyme, the conversion rate of catechol to cis, cis-muconate was measured at 10 different concentrations of catechol ranging between from 0.0001 to 0.05 mM. […] The values for Km, IC50, and Vmax were calculated by Graphpad Prism (Graphpad Software, Inc., USA).

[2] = substrate: Oc1ccccc1O; assay: as above; assay type: biochemical, P. putida KT2440; details: other: substrate catechol, 0.0001 to 0.05 mM, 20 mM Tris-HCl, 0.125 M imidazole, pH 7.8, 37.0 °C
Text: as §1, §2, §3

## O=C(O)c1cccc(F)c1 [3-FB, 3-fluorobenzoate]
P. putida KT2440
  Growth of P. putida KT2440: more inhibited

## O=C(O)/C=C\C=C/C(=O)O [cis, cis-muconate]
[1]; at a concentration of 0.05 mM catechol, cis, cis-muconate 0 to 0.2 mM
  IC50: 139 µM
[1]; calculated from Km and IC50 using the Cheng-Prusoff equation
  Ki: 2.8 µM

B1: catA2 (catechol 1,2-dioxygenase) (Pseudomonas putida KT2440) (protein)
chain: MTVNISHTAEVQQFFEQAAGFCNAAGNPRLKRIVQRLLQDTARLIEDLDISEDEFWHAVDYLNRLGGRGEAGLLVAGLGIEHFLDLLQDAKDQEAGRVGGTPRTIEGPLYVAGAPIAQGEVRMDDGSEEGVATVMFLEGQVLDPHGRPLPGATVDLWHANTRGTYSFFDQSQSAYNLRRRIVTDAQGRYRARSIVPSGYGCDPQGPTQECLDLLGRHGQRPAHVHFFISAPGYRHLTTQINLSGDKYLWDDFAYATRDGLVGEVVFVEGPDGRHAELKFDFQLQQAQGGADEQRSGRPRALQEA
[2]
  Km: 1 µM

From patent publication EP2562249A1, “Engineered host cells and methods for the production of cis, cis-muconic acid” (Helmholtz-Zentrum für Infektionsforschung GmbH, priority 2011, dated 2013)
